Literature values, collected in US6495562B1, “Naphthamidine urokinase inhibitors” (Abbott Laboratories, priority 2000, dated 2002).

What was measured:
angiogenesis = conditions: J. Cell Biol. 1991, 115[3 Pt 2], 402a
tumor metastasis = conditions: Anticancer Res. 1988, 8, 1373-1376

SMILES: N=C(N)NC(=O)c1nc(Cl)c(N)nc1N [Amiloride]
- inhibition of angiogenesis in vitro (angiogenesis): inhibit
- inhibition of tumor metastasis in vivo (tumor metastasis): inhibit
